Read-outs that look alike come from different tables or passages of the source. Marks after values point to notes of the source that are not given here.
What was measured:
[1] = molecular target: T1, DM EGFR (DoubleMutantEGFR, L828R/T790M) (Homo sapiens, UniProt P00533, L858R/T790M); assay: Inhibition of DM EGFR kinase activity (ADP-Glo); type: biochemical; settings: for IC50: inhibition of kinase activity, EGFR DM (L828R/T790M); for SI, IC50(WT)/IC50(DM): selectivity index, kinase EGFR WT vs EGFR DM
T1 construct: purchased SignalChem
How it was run: (§1)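 Recombinant WT or double-mutant EGFR was incubated with a solution of 0.5 mg/mL peptide substrate and 50 μM ATP for 180 minutes at 37° C. Kinase activity was detected by ADP-Glo luminescence. IC50 values came from a four-parameter logistic fit.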

[2] = Chemical stability in human blood plasma; type: in vitro ADME; settings: pooled human blood plasma; 10 μm; 4 hours at 37° C.; substance amount remaining
How it was run: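 Pooled plasma from ten healthy donors was spiked to 10 μM from a 10 mM DMSO stock and held 4 h at 37 °C. After acetonitrile protein precipitation, HPLC peak areas before and after incubation gave the percentage of compound remaining.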

[3] = tested on: A549 (lung adenocarcinoma, WT); assay: Antiproliferative activity on A549 cells (Alamar Blue); type: cell-based; settings: Homo sapiens, antiproliferative test
How it was run: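 Cells seeded at 5*10^3/well in RPMI-1640 with 2% FBS, attached 16-18 h at 37° C, then exposed to compounds (≤1% DMSO) for 72 h. Alamar Blue added for 3-5 h; fluorescence read at 540/590 nm. IC50 from four-parameter logistic fit.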

WT EGFR (Wild-Type EGFR) = molecular target: T2, WT EGFR (Wild-Type EGFR) (Homo sapiens, UniProt P00533); assay: Inhibition of WT EGFR kinase activity (ADP-Glo); type: biochemical
T2 construct: purchased SignalChem
How it was run: as §1

HepG2 cells = assay: General cytotoxicity on HepG2 cells; type: cell-based; settings: therapeutic index, CC50 HepG2 / IC50 H1975
How it was run: (§2)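 HepG2 cells seeded at 2*10^4 cells per well and compounds added in DMEM with 2% FBS for 72 h at 37 °C. Viability read with Alamar Blue and CC50 derived as for IC50. Therapeutic index taken as HepG2 CC50 over H1975 IC50.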

[4] = General cytotoxicity on HepG2 cells; type: cell-based; settings: human; general cytotoxicity, HepG2 cells, 72 hours, average of several tests
How it was run: as §2

[5] = Chemical stability in simulated gastric fluid (SGF); type: physicochemical; settings: SGF without enzymes, pH 1,4; 10 μm; 2 hours at 37° C.; substance amount remaining
Protocol: (§3) 1) Determination of chemical stability in simulated intestinal fluid, simulated gastric fluid and human blood plasma.
(§4) SGF concentrate without enzymes, pH=1,4 (Sigma Ireland, cat #01651) was used as simulated gastric fluid. Initial candidate solution (10 mM in DMSO) was diluted with a SGF working solution to a concentration of 10 μm (test solution). The test solution was incubated in a dry block thermostat for 2 hours at 37° C. SIF concentrate without enzymes, pH=6.5 (Sigma Ireland, cat #55331) was used as simulated intestinal fluid. Initial candidate solution (10 mM in DMSO) was diluted with a SIF working solution to a concentration of 10 μm (test solution). The test solution was incubated in a dry block thermostat for 2 hours at 37° C. HPLC with Agilent 1200 liquid chromatography system (Agilent, USA) was employed to determine peak areas of the compounds in test samples, said peak areas corresponding to the initial test time (prior to incubation) and the final test time (after incubation in a dry block thermostat for 2 hours at 37° C.). We used gradient elution (1 mL/min flow rate). Substance amount in % in a sample after thermostatting was determined.
(§5) The stability of the compounds was estimated.

[6] = tested on: H1975 (lung adenocarcinoma, DM, L828R/T790M); assay: Antiproliferative activity on H1975 cells (Alamar Blue); type: cell-based; settings: for IC50: Homo sapiens, NCI-H1975, H1975 cells; for SI IC50(A549)/IC50(DM): selectivity index, A549 vs H1975 cells
How it was run: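 H1975 cells (15*10^3/well) attached 16-18 h in RPMI-1640 with 2% FBS, then exposed to compounds (≤1% DMSO final) for 72 h at 37 °C. Viability by Alamar Blue fluorescence (Ex 540/Em 590 nm) after 3-5 h; IC50 from four-parameter logistic fit.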

[7] = Chemical stability in simulated intestinal fluid (SIF); type: physicochemical; settings: SIF without enzymes, pH 6.5; 10 μm; 2 hours at 37° C.; substance amount remaining
Protocol: as §3, §4, §5

[8] = tested on: HCC827 (lung adenocarcinoma, SM, exon19delE746-A750); assay: Antiproliferative activity on HCC827 cells (Alamar Blue); type: cell-based; settings: Homo sapiens, antiproliferative test
Protocol: Antiproliferative activity of EGFR inhibitors (Tables 15 and 16) was measured in cell-based bioassay on continuous epithelial cell cultures: A549 (lung adenocarcinoma, ATCC® CRM-CCL-185™—WT), HCC827 (lung adenocarcinoma, ATCC® CRL-2868™—SM (SingleMutantEGFR, exon19delE746-A750)) and H1975 (lung adenocarcinoma, ATCC® CRL-5908™—DM (DoubleMutantEGFR, L828R/T790M)) using cell viability reagent Alamar Blue (ThermoFisher, # DAL1100). Cells were cultured in 10% FBS-supplemented (Gibco, #16140071) RPMI-1640 (PanEco, S330p) for at least 1 passage after thawing, washed with PBS and passaged in 96-well culture plates (3599, Corning) with RPMI-1640 growth medium supplemented with 2% FBS in an amount of 5*10^3 cells/well for A549, 10*10^3 cells/well for HCC827 and 15*10^3 cells/well for H1975 in 100 μL, and incubated at 37° C. in an incubator (Thermo Forma, USA) under 5% of CO2 for 16-18 h for cell attachment.
The test compounds were dissolved in DMSO in the selected range of concentrations and transferred to RPMI-1640 medium (PanEco, S330p) supplemented with 2% FBS. After adding 50 μl of the prepared dilutions to the cells, the incubation mixture contained the final concentrations of the test substances and no more than 1% DMSO. The plates were Incubated at 37° C. for 72 h. After incubation, 15 μl of Alamar Blue vital dye (ThermoFisher, # DAL1100) was added to each well. The plates were shaken on an orbital shaker (Biosan, Latvia) and further incubated for 3-5 h in a CO2 incubator (Thermo Forma, USA). Number of living cells was estimated using a plate spectrophotometer Infinite M200Pro, (Tecan, Switzerland) measuring fluorescent signal at the excitation wavelength (λEx) of 540 nm and emission wavelength (λEm) of 590 nm.
IC50 was calculated using Magellan 7.2 software (Tecan, Switzerland) approximating experimental points by four-parameter logistic model with the optimization by Levenberg-Marquardt.

[9] = average values obtained in several tests, Table 16, read-out: H1975 (DM) IC50
[10] = antiproliferative test, Table 15, read-out: IC50 H1975 (DM)

| Compound | IC50 [1] | SI, IC50(WT)/IC50(DM) [1] | Stability in blood plasma, % [2] | IC50 [3] | IC50 (WT EGFR (Wild-Type EGFR)) | TI, CC50/IC50 (HepG2 cells) | CC50 at 72 h [4] | Stability in SGF, % [5] | IC50 [6, 9] | IC50 [6, 10] | SI IC50(A549)/IC50(DM) [6] | Stability in SIF, % [7] | IC50 [8] |
| --- | --- | --- | --- | --- | --- | --- | --- | --- | --- | --- | --- | --- | --- |
| C=CC(=O)Nc1cc(Nc2nccc(C(=O)c3cccc(OC)c3)n2)c(OC)cc1N(C)CCN(C)C [EGFR_3365_32, N-(2-((2-(dimethylamino)ethyl)(methyl)amino)-4-methoxy-5-((4-(3-methoxybenzoyl)pyrimidin-2-yl)amino)phenyl)acrylamide] | 5.26 nM | 38.41 | 67.5% | 35100 nM | 202 nM | 265 | 24800 nM | 98.0% | 93.4 nM | 93.4 nM | 376.12 | 99.7% | 11.1 nM |
| C=CC(=O)Nc1cc(Nc2nccc(C(=O)c3ccccc3OC)n2)c(OC)cc1N(C)CCN(C)C [EGFR_3365_33, N-(2-((2-(dimethylamino)ethyl)(methyl)amino)-4-methoxy-5-((4-(2-methoxybenzoyl)pyrimidin-2-yl)amino)phenyl)acrylamide] | 6.79 nM | 11.16 | 60.5% | > 10000 nM | 75.8 nM | 10285 | 57600 nM | 99.5% | 5.6 nM | 5.6 nM | >1786** | 96.8% | 5.9 nM |
| C=CC(=O)Nc1cc(Nc2nccc(C(=O)c3cccc([N+](=O)[O-])c3)n2)c(OC)cc1N(C)CCN(C)C [EGFR_3365_34] | 6.95 nM | 74.07 | 82.7% | 16200 nM | 514 nM | 62 | 10300 nM | 99.0% | 164 nM | 164 nM | 98.26 | 100.0% | 111 nM |

Reference: US20200339544A1 (JOINT STOCK COMPANY "BIOCAD", priority 2017, published 2020)
